Entries after “also recorded” stand apart in the source; their conditions may differ. Structures can show the parent of a compound that is named as a salt.
How the values were obtained:
LNCaP cells = assay: Cell proliferation (DNA content, DAPI), LNCaP; assay type: cell-based, human; conditions: 3 nM DHT, seven days, PP 100 nM, HH 100 nM, BiC 1 μM, hydrochloride
Source text: LN-AR cells were created by retroviral infection of a high-expressing AR vector into LNCaP cells, and proliferate independent of androgen in cell culture, unlike their parental line (Chen, C. D., et al., Molecular determinants of resistance to antiandrogen therapy. Nat Med, 2004. 10(1): p. 33-9). HEK293 cells were used as a control. Cells were transferred to charcoal-stripped media two days before they were split and plated in quadruplicate at a density of approximately 20,000 cells/well in 48-well plates. […] Media were changed every day, using a single preparation to ensure consistent compound concentrations. Proliferation was determined by measuring the DNA content of the cells in each well. Each day, the cells in four wells were fixed in 100% cold methanol, followed by staining for 5 min at RT with 0.2 ng/mL 4′,6-diamidino-2-phenylindole (DAPI) in PBS. The cells were washed once in PBS, then read on a fluorescence plate reader using 365/439 excitation/emission wavelengths. LAPC4 and LNCaP cells proliferated to a much greater degree in the presence of DHT, while LN-AR cells proliferated in the presence and absence of DHT.

[1] = target: T1, endogenous wild-type AR, LAPC4 cells (Homo sapiens, UniProt P10275); assay: PSA-luciferase reporter assay in LAPC4 cells with DHT; assay type: cell-based; conditions: 3 nM DHT
T1 construct: that each express endogenous AR; endogenous in cells; host or cells: LAPC4
T1 sequence (P10275 1-920): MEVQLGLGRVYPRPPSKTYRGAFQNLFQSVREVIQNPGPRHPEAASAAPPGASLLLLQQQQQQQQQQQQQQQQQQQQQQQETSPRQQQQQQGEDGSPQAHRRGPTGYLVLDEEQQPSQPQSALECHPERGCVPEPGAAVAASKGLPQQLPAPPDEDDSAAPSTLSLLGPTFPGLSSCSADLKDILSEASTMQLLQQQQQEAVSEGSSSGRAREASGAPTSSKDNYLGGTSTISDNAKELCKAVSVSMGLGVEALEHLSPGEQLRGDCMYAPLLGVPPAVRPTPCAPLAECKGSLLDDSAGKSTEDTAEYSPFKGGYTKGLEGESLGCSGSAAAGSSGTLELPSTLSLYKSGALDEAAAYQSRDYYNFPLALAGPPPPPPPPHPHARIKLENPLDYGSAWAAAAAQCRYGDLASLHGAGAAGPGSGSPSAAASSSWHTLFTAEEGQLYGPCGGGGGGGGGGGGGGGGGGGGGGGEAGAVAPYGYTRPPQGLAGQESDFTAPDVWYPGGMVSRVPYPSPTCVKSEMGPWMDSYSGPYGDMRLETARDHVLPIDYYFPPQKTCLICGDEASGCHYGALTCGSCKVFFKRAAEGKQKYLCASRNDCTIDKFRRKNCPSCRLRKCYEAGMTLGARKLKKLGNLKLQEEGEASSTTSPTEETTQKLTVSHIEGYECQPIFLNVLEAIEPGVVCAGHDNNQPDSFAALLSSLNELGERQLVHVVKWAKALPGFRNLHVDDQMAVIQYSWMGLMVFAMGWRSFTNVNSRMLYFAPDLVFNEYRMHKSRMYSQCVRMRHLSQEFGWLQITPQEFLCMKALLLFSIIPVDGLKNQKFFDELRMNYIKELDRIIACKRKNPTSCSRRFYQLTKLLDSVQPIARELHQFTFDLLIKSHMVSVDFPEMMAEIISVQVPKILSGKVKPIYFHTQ
Procedure: Cells were transfected with two reporter plasmids, a PSA-luciferase construct (androgen responsive), and an SV40-renilla luciferase construct as an internal control. The following day, the cells were split and drugs added in the presence of 3 nM DHT. Luciferase production was measured the following day (Dual luciferase assay kit, Promega).
Synergism can be defined as a combination index of less than one, using the non-exclusive assumption described by Chou et al. (Chou, T. C. and P. Talalay, Quantitative analysis of dose-effect relationships: the combined effects of multiple drugs or enzyme inhibitors. Adv Enzyme Regul, 1984. 22: p. 27-55).

In the case of `Cc1nccc2c1[nH]c1cc(O)ccc12` [HH, harmol hydrochloride], the “Inhibition of cell growth” value (LNCaP cells) is reported as “inhibited significantly; also recorded: exhibited growth-inhibitory properties” and the IC50 [1] is reported as 106 nM.
